Measurements taken from patent US8530512B2, “Broad spectrum gram-positive antimicrobials and anthelmintics with efficacy against drug-resistant strains and Mycobacterium species” (priority 2004, dated 2013).
Converted amounts (≈) assume the structure as drawn. Like-named read-outs stand apart in the source and are kept apart here.

Columns and labels:
Mycobacterium avium = experiment: MIC assay; type: cell-based; details: for MIC: Mycobacterium avium, read-out: MIC M. avium
Mycobacterium chelonae = experiment: MIC assay; type: cell-based; details: for MIC: read-out: MIC M. chelonae
[1] = system: Mycobacterium intracellulare; experiment: MIC assay; type: cell-based; details: for MIC: Mycobacterium intracellulare, read-out: MIC M. intracellulare
M. smegmatis = experiment: MIC assay; type: cell-based; details: for MIC: Mycolicibacterium smegmatis, read-out: MIC M. smegmatis
[2] = system: Staphylococcus aureus MRSA MC-1; experiment: microbe, parasite or virus in culture; type: cell-based; details: for MIC: Staphylococcus aureus, MRSA
Mycobacterium fortuitum = experiment: MIC assay; type: cell-based; details: for MIC: Mycolicibacterium fortuitum, read-out: MIC M. fortuitum
M. kansasii = experiment: MIC assay; type: cell-based; details: for MIC: Mycobacterium kansasii, read-out: MIC M. kansasii
[3] = system: Staphylococcus aureus ATCC 29213; experiment: microbe, parasite or virus in culture; type: cell-based; details: for MIC: Staphylococcus aureus, ATCC29213
C. elegans L1 larvae = experiment: developmental assay; type: in vivo; parameters: key to Developmental score, 1/1600 / Developmental score, 1/800 / Developmental score, 1/400 / Developmental score, 1/200 / Developmental score, 1/100: dead (+++); distressed (++); slightly delayed (+); the same as M9-only untreated wells (−); details: after four days, Ive 1 ng/μL in each well; for Developmental score, 1/100: dilution 1/100; for Developmental score, 1/200: dilution 1/200; for Developmental score, 1/400: dilution 1/400; for Developmental score, 1/800: dilution 1/800; for Developmental score, 1/1600: dilution 1/1600
C. elegans = experiment: motility assay; type: in vivo; parameters: key to Movement score, 1/1600 / Movement score, 1/800 / Movement score, 1/400 / Movement score, 1/200 / Movement score, 1/100: normal (−); slow (+); very slow (++); not motile/paralyzed (+++); details: for Movement score, 1/100: dilution 1/100 of stock (10.24 μg/μL; SK-03-92 1.024 μg/μL); for Movement score, 1/100 / Movement score, 1/200 / Movement score, 1/400 / Movement score, 1/800 / Movement score, 1/1600: Ive 1 ng/μL in all wells; for Movement score, 1/200: dilution 1/200 of stock (10.24 μg/μL; SK-03-92 1.024 μg/μL); for Movement score, 1/400: dilution 1/400 of stock (10.24 μg/μL; SK-03-92 1.024 μg/μL); for Movement score, 1/800: dilution 1/800 of stock (10.24 μg/μL; SK-03-92 1.024 μg/μL); for Movement score, 1/1600: dilution 1/1600 of stock (10.24 μg/μL; SK-03-92 1.024 μg/μL), overnight 20° C.
Bacillus cereus = experiment: microbe, parasite or virus in culture; type: cell-based; details: Bacillus cereus; per-compound listing, Example 6; read-out: MIC B. cereus
[4] = Table 6, read-out: MIC S. aureus ATCC 29213
[5] = per-compound listing, Example 6
[6] = per-compound listing, Example 6, read-out: MIC S. aureus

Row | Structure (SMILES) | MIC [3, 4] [µg/mL] | Developmental score, 1/100 (C. elegans L1 larvae) | Developmental score, 1/200 (C. elegans L1 larvae) | Developmental score, 1/400 (C. elegans L1 larvae) | Developmental score, 1/800 (C. elegans L1 larvae) | Developmental score, 1/1600 (C. elegans L1 larvae) | MIC (Mycobacterium avium; Table 6) [µg/mL] | MIC (Mycobacterium chelonae; Table 6) [µg/mL] | Movement score, 1/100 (C. elegans) | Movement score, 1/200 (C. elegans) | Movement score, 1/400 (C. elegans) | Movement score, 1/800 (C. elegans) | Movement score, 1/1600 (C. elegans) | MIC ([1]; Table 6) [µg/mL] | MIC (M. smegmatis; Table 6) [µg/mL] | MIC ([2]; read-out: MIC S. aureus MC-1) [µg/mL] | MIC (Mycobacterium fortuitum; Table 6) [µg/mL] | MIC (M. kansasii; Table 6) [µg/mL] | MIC M. smegmatis (M. smegmatis; Table 6) [µg/mL] | MIC M. avium (Mycobacterium avium; Table 6) [µg/mL] | further results
1 | COc1cc(O)cc(/C=C/c2ccc(O)cc2)c1 [SK-04-02] | 32 (≈ 132 µM) |  |  |  |  |  |  |  |  |  |  |  |  |  |  |  |  |  |  |  | MIC (Mycobacterium avium): 16 µg/mL (≈ 66 µM); MIC (Mycobacterium chelonae): 32 µg/mL (≈ 132 µM); MIC [1]: 16 µg/mL (≈ 66 µM); MIC (M. smegmatis): 64 µg/mL (≈ 264 µM); MIC ([2]; Table 6, read-out: MIC S. aureus MC-1): 32 µg/mL (≈ 132 µM); MIC (Mycobacterium fortuitum): 64 µg/mL (≈ 264 µM); MIC (M. kansasii): 32 µg/mL (≈ 132 µM)
2 | COc1cc(O)cc(/C=C/c2cccc(O)c2)c1 [SK-04-03] | 32 (≈ 132 µM) | +++ | + | − | − | − | 8 (≈ 33 µM) | 64 (≈ 264 µM) | ++ | ++ | + | + | − | 16 (≈ 66 µM) | 64 (≈ 264 µM) | 16 (≈ 66 µM) | 64 (≈ 264 µM) | 64 (≈ 264 µM) |  |  | 
3 | COc1cc(O)cc(C#Cc2ccccc2)c1 [SK-04-08] | 32 (≈ 143 µM) | +++ | +++ | − | − | − | 16 (≈ 71.3 µM) |  | +++ | +++ | ++ | + | + | 16 (≈ 71.3 µM) | 64 (≈ 285 µM) | 1 (≈ 4.46 µM) | 32 (≈ 143 µM) | 32 (≈ 143 µM) |  |  | 
4 | COc1cc(O)cc(/C=C/Oc2cccc3ccccc23)c1 [SK-04-22] | 16 (≈ 54.7 µM) |  |  |  |  |  | 64 (≈ 219 µM) | 256 (≈ 876 µM) | ++ | + | + | − | − | 128 (≈ 438 µM) |  | 16 (≈ 54.7 µM) | 128 (≈ 438 µM) | 64 (≈ 219 µM) | 128 (≈ 438 µM) |  | MIC (M. smegmatis; [5]): 128 µg/mL (≈ 438 µM); MIC (Bacillus cereus): 8 µg/mL (≈ 27.4 µM); MIC ([2]; read-out: MIC MRSA): 16 µg/mL (≈ 54.7 µM); MIC [3, 6]: 32 µg/mL (≈ 109 µM)
5 | COc1cc(O)cc(/C=C/Oc2ccc3ccccc3c2)c1 [SK-04-23] | 8 (≈ 27.4 µM) | +++ | +++ | + | − | − | 64 (≈ 219 µM) | 128 (≈ 438 µM) | ++ | ++ | ++ | ++ | + | 64 (≈ 219 µM) |  | 8 (≈ 27.4 µM) | 128 (≈ 438 µM) | 64 (≈ 219 µM) | 128 (≈ 438 µM) |  | effect on worms at the lowest concentrations tested (C. elegans; lowest concentrations tested, at least triplicate): reduced motility, paralysis, or death; MIC (M. smegmatis; [5]): 128 µg/mL (≈ 438 µM); MIC (Bacillus cereus): 8 µg/mL (≈ 27.4 µM); MIC ([2]; read-out: MIC MRSA): 8 µg/mL (≈ 27.4 µM); MIC [3, 6]: 16 µg/mL (≈ 54.7 µM)
6 | CCOC(=O)/C=C\Sc1ccccc1C(=O)OC [SK-04-56] | > 512 |  |  |  |  |  | 64 (≈ 240 µM) | 64 (≈ 240 µM) |  |  |  |  |  | 256 (≈ 961 µM) | 64 (≈ 240 µM) | > 512 | 64 (≈ 240 µM) | 64 (≈ 240 µM) |  |  | 
7 | CCOC(=O)/C=C\Sc1ccc(C(C)(C)C)cc1 [SK-04-57] | > 512 |  |  |  |  |  | 64 (≈ 242 µM) | 8 (≈ 30.3 µM) | + | − | − | − | − | 128 (≈ 484 µM) | 16 (≈ 60.5 µM) | > 512 | 4 (≈ 15.1 µM) | 16 (≈ 60.5 µM) |  |  | 
8 | CCOC(=O)/C=C\Sc1ncccn1 [SK-04-58F] |  |  |  |  |  |  |  |  |  |  |  |  |  |  |  |  |  |  | 64 (≈ 304 µM) | 64 (≈ 304 µM) | MIC M. chelonae (Mycobacterium chelonae; Table 6): 32 µg/mL (≈ 152 µM); MIC M. intracellulare ([1]; Table 6): 128 µg/mL (≈ 609 µM); MIC S. aureus MC-1 ([2]; Table 6): >512 µg/mL; MIC M. fortuitum (Mycobacterium fortuitum; Table 6): 64 µg/mL (≈ 304 µM); MIC M. kansasii (M. kansasii; Table 6): 64 µg/mL (≈ 304 µM); MIC S. aureus ATCC 29213 ([3]; Table 6): >512 µg/mL
9 | CCOC(=O)/C=C\Sc1nc2ccccc2s1 [SK-04-59F] |  |  |  |  |  |  |  |  |  |  |  |  |  |  |  |  |  |  | 16 to 32 | 64 (≈ 241 µM) | MIC M. chelonae (Mycobacterium chelonae; Table 6): 8 µg/mL (≈ 30.1 µM); MIC M. intracellulare ([1]; Table 6): 16 µg/mL (≈ 60.3 µM); MIC S. aureus MC-1 ([2]; Table 6): >512 µg/mL; MIC M. fortuitum (Mycobacterium fortuitum; Table 6): 16 µg/mL (≈ 60.3 µM); MIC M. kansasii (M. kansasii; Table 6): 8 µg/mL (≈ 30.1 µM); MIC S. aureus ATCC 29213 ([3]; Table 6): >512 µg/mL
10 | N#Cc1cccc(/C=C/Sc2ncccn2)c1 [SK-04-73] |  |  |  |  |  |  |  |  |  |  |  |  |  |  |  |  |  |  | 64 (≈ 267 µM) | 512 (≈ 2140 µM) | MIC M. chelonae (Mycobacterium chelonae; Table 6): 256 µg/mL (≈ 1070 µM); MIC M. intracellulare ([1]; Table 6): 512 µg/mL (≈ 2140 µM); MIC S. aureus MC-1 ([2]; Table 6): >512 µg/mL; MIC M. fortuitum (Mycobacterium fortuitum; Table 6): 256 µg/mL (≈ 1070 µM); MIC M. kansasii (M. kansasii; Table 6): 128 µg/mL (≈ 535 µM); MIC S. aureus ATCC 29213 ([3]; Table 6): 512 µg/mL (≈ 2140 µM)
